Where a SMILES comes first, the peptide text is derived from it. [ ]: non-standard residue; d: D form. The star is where a group is joined. sY = N[C@@H](Cc1ccc(OS(=O)(=O)O)cc1)C(=O)O; Cbz = O=C(OCc1ccccc1)*; Boc = CC(C)(C)OC(=O)*

As a reminder, the IC50 is the concentration that gives 50% inhibition.

One test concerns CCK-receptor.
Experiment: not given
The conditions noted are these: background; cited from earlier work.
Take `CSCC[C@H](N)C(=O)N[C@@H](CC(=O)O)C(=O)N[C@@H](Cc1ccccc1)C(N)=O` [Met--Asp--Phe--NH2] (H-Met-Asp-Phe-NH2): the “CCK-antagonism (in words)” value was “can function as CCK-antagonists”.

Regarding `CCCC(=O)Nc1nc2c(ncn2[C@@H]2O[C@@H]3COP(=O)(O)O[C@H]3[C@H]2OC(=O)CCC)c(=O)[nH]1` [dibutyryl cyclic GMP], the “CCK-antagonism (in words)” value is given as “the most potent”.

In the case of `CC(C)C[C@@H]1N[C@H]2N(C1=O)c1ccccc1[C@@]2(O)C[C@@H]1NC(=O)c2ccccc2-n2c1nc1ccccc1c2=O` [formula (I), 7β-((2,3,9,9Aα-tetrahydro-9α-hydroxy-2-(2-methylpropyl)-3-oxo-1H-imidazo-(1,2-A)-indol-9-yl)-methyl)quinazolino(3,2-A)(1,4)benzodiazepin-5,13-(6H,7H)dione], the “CCK-antagonism (in words)” value is on record as “has been shown to be a CCK-antagonist”.

`CSCC[C@H](NC(=O)[C@H](Cc1ccc(OS(=O)(=O)O)cc1)NC(=O)OCc1ccccc1)C(=O)NCC(=O)N[C@@H](Cc1c[nH]c2ccccc12)C(=O)N[C@@H](CCSC)C(=O)N[C@@H](CC(=O)O)C(N)=O` [Cbz--Tyr(SO3 H)--Met--Gly--Trp--Met--Asp--NH2] (Cbz-[sY]MGWMD-NH2): the “CCK-antagonism (in words)” value was “can function as CCK-antagonists”.

For the compound `CSCC[C@H](NC(=O)OC(C)(C)C)C(=O)N[C@@H](CC(=O)O)C(=O)N[C@@H](Cc1ccccc1)C(N)=O` [Boc--Met--Asp--Phe--NH2] (Boc-Met-Asp-Phe-NH2), the “CCK-antagonism (in words)” value was “can function as CCK-antagonists”.

The target in another test is T1, CCK receptor (pancreas) (Rattus norvegicus, UniProt P30551).
T1 construct: The whole pancreas of a male Sprague-Dawley rat; from tissue; host or cells: whole pancreas of male Sprague-Dawley rat, washed membrane suspension
T1 sequence (P30551 1-444): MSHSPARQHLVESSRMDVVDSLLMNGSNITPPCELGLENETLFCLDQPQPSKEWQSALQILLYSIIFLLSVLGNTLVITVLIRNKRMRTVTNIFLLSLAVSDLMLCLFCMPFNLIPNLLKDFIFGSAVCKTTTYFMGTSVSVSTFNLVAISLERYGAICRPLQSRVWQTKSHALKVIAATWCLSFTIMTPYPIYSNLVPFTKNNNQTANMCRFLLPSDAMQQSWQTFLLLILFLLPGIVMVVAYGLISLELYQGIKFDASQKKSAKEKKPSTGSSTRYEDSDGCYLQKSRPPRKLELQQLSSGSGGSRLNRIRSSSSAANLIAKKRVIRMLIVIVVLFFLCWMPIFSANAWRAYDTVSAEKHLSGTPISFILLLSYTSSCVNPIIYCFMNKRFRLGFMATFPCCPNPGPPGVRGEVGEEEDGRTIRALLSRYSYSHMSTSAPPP
The experiment in a line: CCK receptor binding (pancreas) method; I-CCK-8 pancreas assay (CCK-antagonism). The conditions noted are these: 125I-CCK binding, rat pancreas membranes, 37° C., 30 minutes; read-out: Anti-CCK Activity IC50. More on the design: species or system male Sprague-Dawley rat. The source says: Screening of the novel compounds according to the present invention to determine biological activity and obtain an IC50 value for them, in order to identify significant CCK-antagonism, may be accomplished using an ^125 I-CCK receptor binding assay and in vitro isolated tissue preparations. These tests involve the following:
CCK receptor binding (pancreas) method
CCK-33 is radiolabeled with ^125 I-Bolton Hunter reagent (2000 Ci/mmole), as described by Sankara et al. (J. Biol. Chem., 254, 9349-9351, 1979). Receptor binding is performed according to Innis and Snyder (Proc. Natl. Acad. Sci., 77, 6917-6921, 1980), with the minor modification of adding the additional protease inhibitors, phenyl-methane sulfonyl fluoride and o-phenanthroline, which have no effect on the ^125 I-CCK receptor binding assay.
The whole pancreas of a male Sprague-Dawley rat (200-350 g), which has been sacrificed by decapitation, is dissected free of fat tissue and homogenized in 20 volumes of ice-cold 50 mM Tris HCl (pH 7.7 at 25° C.) with a Brinkman Polytron PT-10. The homogenates are centrifuged at 48,000 g for 10 minutes, then the resulting pellets are resuspended in Tris Buffer, centrifuged as above, and resuspended in 200 volumes of binding assay buffer (50 mM Tris HCl, pH 7.7 at 25° C., 5 mM dithiothreitol, 0.1 mM bacitracin, 1.2 mM phenylmethane sulfonyl fluoride and 0.5 mM o-phenanthroline).
For the binding assay, 25 μl of buffer (for total binding), or unlabeled CCK-8 sulfate sufficient to give a final concentration of 1 μM of CCK-8 (for nonspecific binding), or the compounds of the formula of the compounds according to the instant invention (for determination of antagonism to ^125 I-CCK binding) and 25 μl of ^125 I-CCK-33 (30,000-40,000 cpm), are added to 450 μl of the membrane suspensions in microfuge tubes. All assays are run in duplicate or triplicate, and the reaction mixtures are incubated at 37° C. for 30 minutes and centrifuged in a Beckman Microfuge (4 minutes) immediately after adding 1 ml of ice-cold incubation buffer. The supernatant is aspirated and discarded, and the pellets are counted with a Beckman Gamma 5000.
Activity Testing with I-CCK-8 Pancreas Assay
The compounds of Examples 1-11 were tested as CCK-antagonists (pancreas assay) with the following results: […]
(In general: Tetrazolium assays rely on reduction of a dye to a coloured formazan, in cell work by metabolically active cells.)
In the case of `CC(C)CC1C(=O)N2c3ccccc3C(O)(CC3NC(=O)c4ccccc4-n4c3nc3ccccc3c4=O)C2N1CCCc1ccccc1` (stereo not drawn) [Example 6, 7-[1-(3-phenylpropyl)-2,3,9,9Aα-tetrahydro-9α-hydroxy-2-(2-methylpropyl)-3-oxo-1H-imidazo(1,2-A)indol-9-yl)methyl]-6,7,7A,8-tetrahydro-5H,13H-quinazolino(3,2-A)-1,4-benzazepin-5H,13-dione sesquihydrate], the IC50 worked out at 0.19 µM.

Turning to `CC(C)C[C@H]1C(=O)N2c3ccccc3[C@@](O)(C[C@@H]3NC(=O)c4ccccc4-n4c3nc3ccccc3c4=O)[C@H]2N1C(=O)[C@H](Cc1ccc(O)cc1)NC(=O)OC(C)(C)C` [Example 8, 7-{{1-[2-((1,1-dimethylethoxy)carbonyl)amino-3-(4-hydroxyphenyl)propanoyl]-2,3,9,9Aα-tetrahydro-9α-hydroxy-2-(2-methylpropyl)-3-oxo-1H-imidazo(1,2-A)indol-9-yl}methyl}quinazolino(3,2-A)-1,4-benzodiazepin-5,13-(6H,7H)-dione hemihydrate], the IC50 came out at 46 µM.

As to `CC(C)C[C@H]1C(=O)N2c3ccccc3[C@@](O)(C[C@@H]3NC(=O)c4ccccc4N4C(=O)c5ccccc5NC34)[C@H]2N1C(=O)C(CCCNC(=O)OCc1ccccc1)NC(=O)OC(C)(C)C` (stereo partly drawn) [Example 11, 7-{{1-[2-((1,1-dimethylethoxy)carbonyl)amino-5-(phenylmethyloxycarbonyl)aminopentanoyl]-2,3,9,9Aα-tetrahydro-9α-hydroxy-2-(2-methylpropyl)-3-oxo-1H-imidazo(1,2-A)indol-9-yl}methyl}-6,7,7A,8-tetrahydro-5H,13-quinazolino(3,2-A)-1,4-benzodiazepin-5H,13-dione hydrate], the IC50 was found to be 1.3 µM.

On to `CC(=O)N1[C@H]2N(C(=O)[C@@H]1CC(C)C)c1ccccc1[C@@]2(O)C[C@@H]1NC(=O)c2ccccc2-n2c1nc1ccccc1c2=O` [Example 2, 7-[(1-acetyl-2,3,9,9Aα-tetrahydro-9α-hydroxy-2-(2-methylpropyl)-3-oxo-1H-imidazo(1,2-A)indol-9-yl)methyl]quinazolino(3,2-A)-1,4-benzodiazepin-5,13-(6H,7H)-dione], for which the concentration for half-maximal inhibition (IC50) was 22 µM.

In the case of `CCN1[C@H]2N(C(=O)[C@@H]1CC(C)C)c1ccccc1[C@@]2(O)C[C@@H]1NC(=O)c2ccccc2N2C(=O)c3ccccc3NC12` (stereo partly drawn) [Example 3, 7-[(1-ethyl-2,3,9,9Aα-tetrahydro-9α-hydroxy-2-(2-methylpropyl)-3-oxo-1H-imidazo(1,2-A)indol-9-yl)methyl]-6,7,7A,8-tetrahydro-5H,13H-quinazolino-(3,2-A)-1,4-benzazepin-5H,13-dione hemihydrate], the IC50 stood at 0.35 µM.

On to `CC(C)C[C@H]1C(=O)N2c3ccccc3[C@@](O)(C[C@@H]3NC(=O)c4ccccc4-n4c3nc3ccccc3c4=O)[C@H]2N1C(=O)C(CCCNC(=O)OCc1ccccc1)NC(=O)OC(C)(C)C` (stereo partly drawn) [Example 10, 7-{{1-[2-((1,1-dimethylethoxy)carbonyl)amino-5-(phenylmethyloxycarbonyl)aminopentanoyl]-2,3,9,9Aα-tetrahydro-9α-hydroxy-2-(2-methylpropyl)-3-oxo-1H-imidazo(1,2-A)indol-9-yl}methyl}quinazolino(3,2-A)-1,4-benzodiazepin-5,13-(6H,7H)-dione], for which the IC50 is 4.3 µM.

Take `CC(C)CC1C(=O)N2c3ccccc3C(O)(CC3NC(=O)c4ccccc4-n4c3nc3ccccc3c4=O)C2N1C(=O)OCc1ccccc1` (stereo not drawn) [Example 4]: the half-maximal inhibitory concentration (IC50) was 5 µM.

In the case of `CC(C)C[C@H]1C(=O)N2c3ccccc3[C@@](O)(C[C@@H]3NC(=O)c4ccccc4-n4c3nc3ccccc3c4=O)[C@H]2N1C(=O)[C@H](Cc1ccc(OCc2ccccc2)cc1)NC(=O)OC(C)(C)C` [Example 7, 7-{{1-[N-((1,1-dimethylethoxy)carbonyl)-o-phenylmethyltryosyl]-2,3,9,9Aα-tetrahydro-9α-hydroxy-2-(2-methylpropyl)-3-oxo-1H-imidazo(1,2-A)indol-9-yl}methyl}quinazolino(3,2-A)-1,4-benzodiazepin-5,13-(6H,7H)-dione], the IC50 worked out at 100 µM.

With `CC(C)C[C@@H]1N[C@H]2N(C1=O)c1ccccc1[C@@]2(O)C[C@@H]1NC(=O)c2ccccc2N2C(=O)c3ccccc3NC12` (stereo partly drawn) [Example 1, 7,7a-dihydro-7-[(2,3,9,9Aα-tetrahydro-9α-hydroxy-2-(2-methylpropyl)-3-oxo-1H-imidazo(1,2-a)indol-9-yl)methyl]quinazolino(3,2-a)(1,4)benzazepin-5,13-(6H,7H)dione hydrate], the IC50 amounted to 0.21 µM.

`CC(C)C[C@H]1C(=O)N2c3ccccc3[C@@](O)(C[C@@H]3NC(=O)c4ccccc4N4C(=O)c5ccccc5NC34)[C@H]2N1O` (stereo partly drawn) [Example 5, 7,7α-dihydro-7-[(2,3,9,9Aα-tetrahydro-1,9α-dihydroxy-2-(2-methylpropyl)-3-oxo-1H-imidazo-(1,2-A)-indol-9-yl)methyl]quinazolino(3,2-A)-1,4-benzodiazepin-5,13(6H,7H)-dione hydrate]: the IC50 was found to be 0.67 µM.

As for `CC(C)C[C@H]1C(=O)N2c3ccccc3[C@@](O)(C[C@@H]3NC(=O)c4ccccc4-n4c3nc3ccccc3c4=O)[C@H]2N1C(=O)C(CCCCNC(=O)OCc1ccccc1)NC(=O)OC(C)(C)C` (stereo partly drawn) [Example 9, 7-{{1-[2-((1,1-dimethylethoxy)carbonyl)amino-6-(phenylmethyloxycarbonyl)aminohexanoyl]-2,3,9,9Aα-tetrahydro-9α-hydroxy-2-(2-methylpropyl)-3-oxo-1H-imidazo(1,2-A)indol-9-yl}methyl}quinazolino(3,2-A)-1,4-benzodiazepin-5,13-(6H,7H)-dione hydrate], the IC50 came to 100 µM.

Still in this test, the particulars now being: added protease inhibitor in the binding assay.
For `O=S(=O)(F)Cc1ccccc1` [phenyl-methane sulfonyl fluoride, reference compound], the “effect on the 125I-CCK receptor binding assay” value is on record as “no effect”.

In the case of `c1cnc2c(c1)ccc1cccnc12` [o-phenanthroline, reference compound], the “effect on the 125I-CCK receptor binding assay” value was “no effect”.
